{"source": "patent US6525041B1", "about": "“Manganese or iron complexes of nitrogen-containing macrocyclic ligands effective as catalysts for dismutating superoxide” (Pharmacia Corporation, priority 1995, dated 2003)", "assay": "Stopped-flow kinetic analysis of catalytic dismutation of superoxide", "assay_type": "biochemical", "details": "pH=8.1 and 21° C., 80 mM Hepes buffer, absorbance at 245 nm", "excerpt": "Stopped-flow kinetic analysis is an accurate and direct method for quantitatively monitoring the decay rates of superoxide in water. The stopped-flow kinetic analysis is suitable for screening compounds for SOD activity and catalytic activity of the compounds or complexes of the present invention for dismutating superoxide, as shown by stopped-flow analysis, correlate to treating the above disease states and disorders. […]\nWater for buffer solutions was delivered from an in-house deionized water system to a Barnstead Nanopure Ultrapure Series 550 water system and then double distilled, first from alkaline potassium permanganate and then from a dilute EDTA solution. […] This system produces deoxygenated water that can be measured to have a conductivity of less than 2.0 nanomhos/cm^2.\nThe stopped-flow spectrometer system was designed and manufactured by Kinetic Instruments Inc. (Ann Arbor, Mich.) and was interfaced to a MAC IICX personal computer. […] Since the published extinction coefficient of superoxide in H2O at 245 nm is ˜2250 M^−1 cm^−1 (1), an initial absorbance value of approximately 0.3-0.5 would be expected for a 2-cm path length cell, and this was observed experimentally. […]"}
{"smiles": "OCCCC1NCCNCCNCCNCCNC1CCCO.[Cl][Mn][Cl]", "note": "(stereo not drawn) [Example 1, [Manqanese(II)dichloro (trans-2,3-bis(3-hydroxypropyl)-1,4,7,10,13-pentaazacyclopentadecane)]]", "values": [{"measurement": "catalytic rate constant for dismutation of superoxide (kcal)", "result": "1.8e+07", "unit": "M⁻¹ s⁻¹"}]}
